The test system of assay [1] is Platelet. Nature of the assay: Inhibition of thrombin-induced platelet aggregation in rabbit plasma at 50 uM preincubated 3 mins before addition of thrombin by turbidimetric method. The assay is classed as functional, Oryctolagus cuniculus. Set-up: scale not given: the % may be the effect or the level left.
The subject of assay [2] is Platelet. In words: Inhibition of arachidonic acid-induced platelet aggregation in rabbit plasma at 50 uM preincubated 3 mins before addition of thrombin by turbidimetric method. Set-up: scale not given: the % may be the effect or the level left. The format is functional, Oryctolagus cuniculus.
For assay [3], the system named is Platelet. Nature of the assay: Inhibition of collagen-induced platelet aggregation in rabbit plasma at 50 uM preincubated 3 mins before addition of thrombin by turbidimetric method. The format is functional, Oryctolagus cuniculus. Set-up: scale not given: the % may be the effect or the level left.
The subject of assay [4] is Platelet. In words: Inhibition of platelet activating factor-induced platelet aggregation in rabbit plasma at 50 uM preincubated 3 mins before addition of thrombin by turbidimetric method. The assay is classed as functional, Oryctolagus cuniculus. Details: scale not given: the % may be the effect or the level left.
For assay [5], the system named is Platelet. Nature of the assay: Inhibition of arachidonic acid-induced platelet aggregation in rabbit plasma at 100 uM preincubated 3 mins before addition of thrombin by turbidimetric method. The assay is classed as functional, Oryctolagus cuniculus. Details: scale not given: the % may be the effect or the level left.
For assay [6], the system named is Platelet. Nature of the assay: Inhibition of collagen-induced platelet aggregation in rabbit plasma at 100 uM preincubated 3 mins before addition of thrombin by turbidimetric method. The format is functional, Oryctolagus cuniculus. Set-up: scale not given: the % may be the effect or the level left.
Assay [7] has as its system Platelet. Nature of the assay: Inhibition of thrombin-induced platelet aggregation in rabbit plasma at 300 uM preincubated 3 mins before addition of thrombin by turbidimetric method. The assay is classed as functional, Oryctolagus cuniculus. Details: scale not given: the % may be the effect or the level left.
In assay [8] the test system is Platelet. In words: Inhibition of arachidonic acid-induced platelet aggregation in rabbit plasma at 300 uM preincubated 3 mins before addition of thrombin by turbidimetric method. The format is functional, Oryctolagus cuniculus. Details: scale not given: the % may be the effect or the level left.
Assay [9] concerns Platelet. Nature of the assay: Inhibition of collagen-induced platelet aggregation in rabbit plasma at 300 uM preincubated 3 mins before addition of thrombin by turbidimetric method. The assay is classed as functional, Oryctolagus cuniculus. Set-up: scale not given: the % may be the effect or the level left.
Assay [10] concerns Platelet. Nature of the assay: Inhibition of platelet activating factor-induced platelet aggregation in rabbit plasma at 300 uM preincubated 3 mins before addition of thrombin by turbidimetric method. The format is functional, Oryctolagus cuniculus. Details: scale not given: the % may be the effect or the level left.
Assay [11] concerns Platelet. Nature of the assay: Inhibition of arachidonic acid-induced platelet aggregation in rabbit plasma at 150 uM preincubated 3 mins before addition of thrombin by turbidimetric method. The format is functional, Oryctolagus cuniculus. Details: scale not given: the % may be the effect or the level left.
The test system of assay [12] is Platelet. In words: Inhibition of arachidonic acid-induced platelet aggregation in rabbit plasma at 60 uM preincubated 3 mins before addition of thrombin by turbidimetric method. The assay is classed as functional, Oryctolagus cuniculus. Details: scale not given: the % may be the effect or the level left.
The test system of assay [13] is Platelet. In words: Inhibition of arachidonic acid-induced platelet aggregation in rabbit plasma at 30 uM preincubated 3 mins before addition of thrombin by turbidimetric method. The format is functional, Oryctolagus cuniculus. Details: scale not given: the % may be the effect or the level left.
Assay [14] concerns Platelet. Nature of the assay: Inhibition of arachidonic acid-induced platelet aggregation in rabbit plasma at 15 uM preincubated 3 mins before addition of thrombin by turbidimetric method. Set-up: scale not given: the % may be the effect or the level left. The format is functional, Oryctolagus cuniculus.
In assay [15] the test system is Platelet. Nature of the assay: Inhibition of arachidonic acid-induced platelet aggregation in rabbit plasma preincubated 3 mins before addition of thrombin by turbidimetric method. Particulars: Oryctolagus cuniculus.
Assay [16] relates to Aorta. Nature of the assay: Inhibition of Ca2+-induced Wistar rat thoracic aorta contraction at 300 uM in high K+ medium pretreated 15 mins before addition of Ca2+ and K+ relative to control. The assay is classed as functional. Set-up: scale not given: the % may be the effect or the level left.
For assay [17], the system named is Aorta. Nature of the assay: Inhibition of Ca2+-induced Wistar rat thoracic aorta contraction at 90 uM in high K+ medium pretreated 15 mins before addition of Ca2+ and K+ relative to control. The format is functional. Details: scale not given: the % may be the effect or the level left.
The subject of assay [18] is Aorta. In words: Inhibition of Ca2+-induced Wistar rat thoracic aorta contraction at 30 uM in high K+ medium pretreated 15 mins before addition of Ca2+ and K+ relative to control. The assay is classed as functional. Set-up: scale not given: the % may be the effect or the level left.
The test system of assay [19] is Aorta. In words: Inhibition of Ca2+-induced Wistar rat thoracic aorta contraction in high K+ medium pretreated 15 mins before addition of Ca2+ and K+.
Assay [20] has as its system Aorta. Nature of the assay: Inhibition of noradrenaline-induced Wistar rat thoracic aorta phasic contraction in high K+ medium at 300 uM pretreated 15 mins before addition of Ca2+ and K+ relative to control. The format is functional. Set-up: scale not given: the % may be the effect or the level left.
Assay [21] has as its system Aorta. In words: Inhibition of noradrenaline-induced Wistar rat thoracic aorta phasic contraction in high K+ medium at 90 uM pretreated 15 mins before addition of Ca2+ and K+ relative to control. Details: scale not given: the % may be the effect or the level left. The assay is classed as functional.
The subject of assay [22] is Aorta. Nature of the assay: Inhibition of noradrenaline-induced Wistar rat thoracic aorta phasic contraction in high K+ medium at 30 uM pretreated 15 mins before addition of Ca2+ and K+ relative to control. The assay is classed as functional. Set-up: scale not given: the % may be the effect or the level left.
Assay [23] relates to Aorta. In words: Inhibition of noradrenaline-induced Wistar rat thoracic aorta phasic contraction in high K+ medium at 9 uM pretreated 15 mins before addition of Ca2+ and K+ relative to control. The assay is classed as functional. Details: scale not given: the % may be the effect or the level left.
Assay [24] concerns Aorta. In words: Inhibition of noradrenaline-induced Wistar rat thoracic aorta tonic contraction in high K+ medium at 300 uM pretreated 15 mins before addition of Ca2+ and K+ relative to control. Details: scale not given: the % may be the effect or the level left. The assay is classed as functional.
For assay [25], the system named is Aorta. Nature of the assay: Inhibition of noradrenaline-induced Wistar rat thoracic aorta tonic contraction in high K+ medium at 90 uM pretreated 15 mins before addition of Ca2+ and K+ relative to control. The format is functional. Details: scale not given: the % may be the effect or the level left.
The subject of assay [26] is Aorta. Nature of the assay: Inhibition of noradrenaline-induced Wistar rat thoracic aorta tonic contraction in high K+ medium at 30 uM pretreated 15 mins before addition of Ca2+ and K+ relative to control. Set-up: scale not given: the % may be the effect or the level left. The format is functional.
In assay [27] the test system is Aorta. In words: Inhibition of noradrenaline-induced Wistar rat thoracic aorta tonic contraction in high K+ medium at 9 uM pretreated 15 mins before addition of Ca2+ and K+ relative to control. Details: scale not given: the % may be the effect or the level left. The format is functional.
In assay [28] the test system is Aorta. Nature of the assay: Inhibition of noradrenaline-induced Wistar rat thoracic aorta tonic contraction in high K+ medium pretreated 15 mins before addition of Ca2+ and K+ relative to control.
Assay [29] relates to Aorta. In words: Inhibition of noradrenaline-induced Wistar rat thoracic aorta phasic contraction in high K+ medium pretreated 15 mins before addition of Ca2+ and K+ relative to control.
Assay [30] concerns Aorta. Nature of the assay: Inhibition of Ca2+-induced Wistar rat thoracic aorta contraction at 150 uM in high K+ medium pretreated 15 mins before addition of Ca2+ and K+ relative to control. The format is functional. Details: scale not given: the % may be the effect or the level left.
Assay [31] concerns Aorta. In words: Inhibition of noradrenaline-induced Wistar rat thoracic aorta phasic contraction in high K+ medium at 150 uM pretreated 15 mins before addition of Ca2+ and K+ relative to control. The assay is classed as functional. Set-up: scale not given: the % may be the effect or the level left.
Assay [32] relates to Aorta. In words: Inhibition of noradrenaline-induced Wistar rat thoracic aorta tonic contraction in high K+ medium at 150 uM pretreated 15 mins before addition of Ca2+ and K+ relative to control. The format is functional. Details: scale not given: the % may be the effect or the level left.

Turning to `CC(=O)Oc1ccccc1C(=O)O` [ASPIRIN], the Activity with Platelet [1] is on record as 91.9%; in the assay with Platelet [2], 0%; in the assay on Platelet [3], 85.4%; in the assay with Platelet [4], 90.5%.

As for `CC(=O)OC[C@H]1O[C@@H](OC[C@H]2O[C@@H](c3c(OC(C)=O)cc4oc(-c5ccc(OC(C)=O)c(OC(C)=O)c5)cc(=O)c4c3OC(C)=O)[C@H](OC(C)=O)[C@@H](OC(C)=O)[C@@H]2OC(C)=O)[C@H](OC(C)=O)[C@@H](OC(C)=O)[C@@H]1OC(C)=O`, the Activity is 79.9% in the assay on Platelet [5] and 80.5% in the assay on Platelet [6].

With `O=c1cc(-c2ccc(O)cc2)oc2cc(O)c([C@@H]3O[C@H](CO)[C@@H](O)[C@H](O)[C@H]3O)c(O)c12` [ISOVITEXIN], the Activity in the assay with Platelet [7] came to 36.5%; in the assay with Platelet [8], 85.1%; in the assay on Platelet [9], 84.7%; with Platelet [10], 83.9%.

Regarding `O=c1cc(-c2ccc(O)c(O)c2)oc2cc(O)cc(O)c12` [LUTEOLIN], the Activity in the assay with Platelet [7] turned out to be 34.7%; in the assay with Platelet [8], 0%; in the assay with Platelet [11], 0%; in the assay on Platelet [12], 20.5%; in the assay on Platelet [13], 53%; in the assay with Platelet [14] it was 79.2%. The Activity with Platelet [9] is 2.8%; in the assay on Platelet [10], 53%; in the assay on Aorta [16] it was 28.6%; with Aorta [17] it was 49.9%; in the assay with Aorta [18], 69.5%; in the assay with Aorta [20] it was 14.9%. The Activity amounted to 29.3% with Aorta [21]; 64.7% with Aorta [22]; 92.8% with Aorta [23]; 22.9% with Aorta [24]; 32.6% in the assay with Aorta [25]; 52.3% in the assay with Aorta [26]. The Activity in the assay on Aorta [27] came to 99.2%. Moreover, the IC50 – broadly, the midpoint of a concentration-inhibition curve – in the assay with Platelet [15] amounted to 43.5 µM; in the assay on Aorta [19], 156 µM; in the assay on Aorta [28] it was 72 µM; in the assay with Aorta [29] it was 68 µM.

On to `CC(=O)OC[C@H]1O[C@@H](c2c(OC(C)=O)cc3oc(-c4ccc(OC(C)=O)c(OC(C)=O)c4)cc(=O)c3c2OC(C)=O)[C@H](OC(C)=O)[C@@H](OC(C)=O)[C@@H]1OC(C)=O` [ISOORIENTIN PERACETATE], for which the Activity in the assay on Platelet [7] came out at 79%; in the assay on Platelet [8], 72.4%; with Platelet [9], 68.6%; in the assay with Platelet [10] it was 74.7%.

For `O=c1cc(-c2ccc(O)c(O)c2)oc2cc(O[C@@H]3O[C@H](CO)[C@@H](O)[C@H](O)[C@H]3O)cc(O)c12` [GALUTEOLIN], the Activity in the assay on Platelet [7] came to 87%; in the assay on Platelet [8], 80.2%; in the assay on Platelet [9], 80.5%; in the assay on Platelet [10], 71.9%; with Aorta [30], 93.4%; in the assay on Aorta [31] it was 84.5%. The Activity with Aorta [32] was found to be 88.2%.

Regarding `O=c1cc(-c2ccc(O)c(O)c2)oc2cc(O)c([C@@H]3O[C@H](CO)[C@@H](O)[C@H](O)[C@H]3O)c(O)c12` [ISOORIENTIN], the Activity is 85.5% with Platelet [7]; 66.9% in the assay with Platelet [8]; 60.8% in the assay on Platelet [9]; 77.1% in the assay on Platelet [10]; 106% in the assay on Aorta [30]; 91.7% in the assay on Aorta [31]. Further, the Activity in the assay with Aorta [32] is 86.6%.

With `O=c1cc(-c2ccc(O)cc2)oc2cc(O)c([C@@H]3O[C@H](CO[C@@H]4O[C@H](CO)[C@@H](O)[C@H](O)[C@H]4O)[C@@H](O)[C@H](O)[C@H]3O)c(O)c12`, the Activity was 87.4% in the assay with Platelet [7], 84.9% in the assay on Platelet [8], 85.6% in the assay with Platelet [9] and 84.6% in the assay with Platelet [10].

For `O=c1cc(-c2ccc(O)c(O)c2)oc2cc(O)c([C@@H]3O[C@H](CO[C@@H]4O[C@H](CO)[C@@H](O)[C@H](O)[C@H]4O)[C@@H](O)[C@H](O)[C@H]3O)c(O)c12`, the Activity stood at 85.7% with Platelet [7], 83.3% in the assay on Platelet [8], 85.4% in the assay on Platelet [9] and 83.5% in the assay with Platelet [10].
